The experiment has as its system P388 leukemia ip, CD2F1 mice, survival T/C. The experiment can be described thus: NCI In Vivo Anticancer Drug Screen. Data for tumor model P388 Leukemia (intraperitoneal) in CD2F1 (CDF1) mice. As to conditions: endpoint: median survival time, higher = longer survival. Put shortly: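 Mice carrying the transplanted tumor received test compound or vehicle. Survival was recorded in each group, and the value is the treated-group measurement divided by that of the vehicle-treated control group.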

Setting [1] is: dose: 60.0 mg/kg/injection, schedule: Q01DX005 (ip), vehicle: saline with Tween-80.
Where [2] appears, read: dose: 120.0 mg/kg/injection, schedule: Q01DX005 (ip), vehicle: saline with Tween-80.
Where [3] appears, read: dose: 240.0 mg/kg/injection, schedule: Q01DX005 (ip), vehicle: saline with Tween-80.
[4] abbreviates: dose: 50.0 mg/kg/injection, schedule: Q01DX009 (ip), vehicle: saline.
[5] abbreviates: dose: 100.0 mg/kg/injection, schedule: Q01DX009 (ip), vehicle: saline.
[6] abbreviates: dose: 200.0 mg/kg/injection, schedule: Q01DX009 (ip), vehicle: saline.

Where “and” joins values, the source holds several entries; their conditions need not be identical. Equal entries are not always repeated. Inconclusive results and toxic doses are left out.

For `O=C1c2cccc3cccc(c23)C2C1N2C1CCCCC1` (stereo not drawn), the T/C is 95 % of control (dose: 25.0 mg/kg/injection, schedule: Q01DX001 (ip), vehicle: saline sonified); 104 % of control (dose: 50.0 mg/kg/injection, schedule: Q01DX001 (ip), vehicle: saline sonified); 86 % of control (dose: 100.0 mg/kg/injection, schedule: Q01DX001 (ip), vehicle: saline sonified).

Turning to `CCSC1=C(SCC)C1SCC`, the T/C is 107 % of control (dose: 12.5 mg/kg/injection, schedule: Q04DX003 (ip), vehicle: Klucel (hydroxypropylcellulose) (HPC)); 107 % of control (dose: 25.0 mg/kg/injection, schedule: Q04DX003 (ip), vehicle: Klucel (hydroxypropylcellulose) (HPC)); 121 % of control (dose: 50.0 mg/kg/injection, schedule: Q04DX003 (ip), vehicle: Klucel (hydroxypropylcellulose) (HPC)); 113 % of control (dose: 100.0 mg/kg/injection, schedule: Q04DX003 (ip), vehicle: Klucel (hydroxypropylcellulose) (HPC)).

As for `COC(=O)/C(CC(=O)O)=C(\c1ccc2c(c1)OCO2)c1cc(OC)c(OC)c(OC)c1`, the T/C reads like this: (dose: 100.0 mg/kg/injection, schedule: Q04DX002 (ip), vehicle: Klucel (hydroxypropylcellulose) (HPC)) 100 % of control; (dose: 200.0 mg/kg/injection, schedule: Q04DX002 (ip), vehicle: Klucel (hydroxypropylcellulose) (HPC)) 103 % of control; (dose: 400.0 mg/kg/injection, schedule: Q04DX002 (ip), vehicle: Klucel (hydroxypropylcellulose) (HPC)) 100 % of control.

On to `CSC(=S)n1nc(-c2cccs2)c(N=Nc2ccc(Cl)cc2)c1C(F)(F)F`, for which the T/C reads like this: under setting [1], 92 % of control; under setting [2], 100 % of control; under setting [3], 111 % of control.

As for `CCCCC1(C#Cc2ccccc2)Sc2ccccc2N1C` (stereo not drawn), the T/C is, setting by setting: under setting [1], 98 % of control; under setting [2], 101 % of control; under setting [3], 107 % of control.

In the case of `N#CC1[C@@H](C(=O)c2ccccc2)N2C=Cc3ccccc3[C@@H]2[C@H]1C#N` (stereo partly drawn), the T/C under setting [1] is 90 % of control.

For the compound `COC(=O)[C@@]12OC[C@]34[C@H]([C@@H](O)[C@@H]1O)[C@@]1(C)CC(=O)C(OC(=O)CC(=O)OC5=C(C)[C@@H]6C[C@H]7OC(=O)[C@H](OC(=O)/C=C(\C)C(C)C)[C@H]8[C@]9(C(=O)OC)OC[C@]78[C@H]([C@@H](O)[C@@H]9O)[C@@]6(C)CC5=O)=C(C)[C@@H]1C[C@H]3OC(=O)[C@H](OC(=O)/C=C(\C)C(C)C)[C@@H]24`, the T/C is, setting by setting: (dose: 0.19 mg/kg/injection, schedule: Q01DX009 (ip), vehicle: saline + Tween-80 + alcohol) 121 % of control; (dose: 0.37 mg/kg/injection, schedule: Q01DX005 (ip), vehicle: saline + Tween-80 + alcohol) 119 % of control; (dose: 0.38 mg/kg/injection, schedule: Q01DX005 (ip), vehicle: saline + Tween-80 + alcohol) 110 % of control; (dose: 0.38 mg/kg/injection, schedule: Q01DX009 (ip), vehicle: saline + Tween-80 + alcohol) 120 % of control; (dose: 0.75 mg/kg/injection, schedule: Q01DX005 (ip), vehicle: saline + Tween-80 + alcohol) 114 % of control; (dose: 0.75 mg/kg/injection, schedule: Q01DX009 (ip), vehicle: saline + Tween-80 + alcohol) 124 % of control. Besides, the T/C is 165 % of control (dose: 1.5 mg/kg/injection, schedule: Q01DX009 (ip), vehicle: saline + Tween-80 + alcohol) and 163 % of control (dose: 3.0 mg/kg/injection, schedule: Q01DX009 (ip), vehicle: saline + Tween-80 + alcohol).

On to `COc1cc(CCc2cc(OC)c(OC)c(OC)c2)cc(OC)c1OC`, for which the T/C (dose: 31.25 mg/kg/injection, schedule: Q01DX009 (ip), vehicle: saline + Tween-80 + alcohol) was 98 % of control; the T/C (dose: 62.5 mg/kg/injection, schedule: Q01DX009 (ip), vehicle: saline + Tween-80 + alcohol) is 91 % of control; the T/C (dose: 125.0 mg/kg/injection, schedule: Q01DX009 (ip), vehicle: saline + Tween-80 + alcohol) is 102 % of control; the T/C (dose: 250.0 mg/kg/injection, schedule: Q01DX009 (ip), vehicle: saline + Tween-80 + alcohol) is 87 % of control.

Regarding `Cc1cc2c(=O)cc(-c3ccc(Cl)cc3)oc2c(C#N)c1C`, the T/C was 89 % of control (dose: 60.0 mg/kg/injection, schedule: Q01DX005 (ip), vehicle: Klucel (hydroxypropylcellulose) (HPC)); 93 % of control (dose: 120.0 mg/kg/injection, schedule: Q01DX005 (ip), vehicle: Klucel (hydroxypropylcellulose) (HPC)); 100 % of control (dose: 240.0 mg/kg/injection, schedule: Q01DX005 (ip), vehicle: Klucel (hydroxypropylcellulose) (HPC)).

Consider `CCOC(=O)c1cnc(SC)n(-c2ccc(OC)cc2)c1=O`, for which the T/C is, setting by setting: (dose: 50.0 mg/kg/injection, schedule: Q01DX005 (ip), vehicle: Klucel (hydroxypropylcellulose) (HPC)) 107 % of control; (dose: 100.0 mg/kg/injection, schedule: Q01DX005 (ip), vehicle: Klucel (hydroxypropylcellulose) (HPC)) 92 % of control; (dose: 200.0 mg/kg/injection, schedule: Q01DX005 (ip), vehicle: Klucel (hydroxypropylcellulose) (HPC)) 101 % of control.

On to `CS[C@@H]1C[C@H]2[C@@H]3CCC4=CC(=O)CC[C@]4(C)[C@H]3CC[C@]2(C)[C@H]1C(C)=O`, for which the T/C was 90 % of control (dose: 12.5 mg/kg/injection, schedule: Q01DX009 (ip), vehicle: saline with Tween-80); 90 % of control (dose: 25.0 mg/kg/injection, schedule: Q01DX009 (ip), vehicle: saline with Tween-80); 100 % of control (dose: 50.0 mg/kg/injection, schedule: Q01DX009 (ip), vehicle: saline with Tween-80); 100 % of control (dose: 100.0 mg/kg/injection, schedule: Q04DX003 (ip), vehicle: saline with Tween-80); 90 % of control (dose: 200.0 mg/kg/injection, schedule: Q04DX003 (ip), vehicle: saline with Tween-80); 100 % of control (dose: 400.0 mg/kg/injection, schedule: Q04DX003 (ip), vehicle: saline with Tween-80).

On to `Cc1n[nH]c(=O)c2[nH]c3ccccc3c12`, for which the T/C under setting [1] is 104 % of control, the T/C under setting [2] was 97 % of control and the T/C under setting [3] was 96 % of control.

On to `OCCC(CCN1CCOCC1)(c1ccccc1)C1(O)CCCC1` (stereo not drawn), for which the T/C was 95 % of control (dose: 60.0 mg/kg/injection, schedule: Q01DX005 (ip), vehicle: saline); 98 % of control (dose: 120.0 mg/kg/injection, schedule: Q01DX005 (ip), vehicle: saline); 92 % of control (dose: 240.0 mg/kg/injection, schedule: Q01DX005 (ip), vehicle: saline).

In the case of `Nc1c(/C=C/c2ccccc2)[nH]c(=O)[nH]c1=O`, the T/C reads like this: (dose: 25.0 mg/kg/injection, schedule: Q04DX002 (ip), vehicle: saline) 104 % of control; (dose: 50.0 mg/kg/injection, schedule: Q04DX002 (ip), vehicle: saline) 105 % of control; (dose: 100.0 mg/kg/injection, schedule: Q04DX002 (ip), vehicle: saline) 121 % of control and 88 % of control.

With `O=C(CC(=O)C(F)(F)F)c1cccs1.O=C(CC(=O)C(F)(F)F)c1cccs1.O=C(CC(=O)C(F)(F)F)c1cccs1.[Eu]`, the T/C by setting is: under setting [4], 113 % of control; under setting [5], 106 % of control; under setting [6], 102 % of control.

As for `COc1ccc2c(c1OC)C[N+]1(C)CCc3cc4c(cc3C1=C2)OCO4` (stereo not drawn), the T/C is 114 % of control (dose: 0.63 mg/kg/injection, schedule: Q01DX009 (ip), vehicle: water); 108 % of control (dose: 1.25 mg/kg/injection, schedule: Q01DX009 (ip), vehicle: water); 100 % of control (dose: 2.5 mg/kg/injection, schedule: Q01DX009 (ip), vehicle: water); 101 % of control (dose: 5.0 mg/kg/injection, schedule: Q01DX009 (ip), vehicle: water); 110 % of control (dose: 10.0 mg/kg/injection, schedule: Q01DX009 (ip), vehicle: water).

Take `COc1ccc(CSC(=S)Nc2ccc(N=Nc3ccccc3)cc2)cc1`: the T/C is, setting by setting: under setting [4], 107 % of control; under setting [5], 104 % of control; under setting [6], 119 % of control.

Turning to `N#Cc1c(=O)n(CCO)nc2c3ccccc3c3ccccc3c12`, the T/C (dose: 100.0 mg/kg/injection, schedule: Q04DX002 (ip), vehicle: saline with Tween-80) is 97 % of control and the T/C (dose: 200.0 mg/kg/injection, schedule: Q04DX002 (ip), vehicle: saline with Tween-80) was 88 % of control.

In the case of `CCOC(=O)c1cc2c(ccc3ccccc32)[nH]1`, the T/C is 97 % of control under setting [1] and 89 % of control under setting [2].

Consider `COc1cc(CC(=O)O)c([N+](=O)[O-])cc1C`, for which the T/C runs as follows: (dose: 25.0 mg/kg/injection, schedule: Q01DX001 (ip), vehicle: Klucel (hydroxypropylcellulose) (HPC)) 90 % of control; (dose: 50.0 mg/kg/injection, schedule: Q01DX001 (ip), vehicle: Klucel (hydroxypropylcellulose) (HPC)) 91 % of control; (dose: 100.0 mg/kg/injection, schedule: Q01DX001 (ip), vehicle: Klucel (hydroxypropylcellulose) (HPC)) 91 % of control.

Values taken from PubChem BioAssay AID330 (DTP/NCI, 2004).
